In PubChem BioAssay (NCI):
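Test compounds were applied to cells in 96-well plates for 48 hours at 5 doses. TGI denotes the concentration required for complete inhibition of growth.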

Experiments:
Test in all cases: NCI tumour cell line growth inhibition, 48 h
EKVX NSCLC = system: EKVX NSCLC
CCRF-CEM leukemia = system: CCRF-CEM leukemia
CAKI-1 renal = system: CAKI-1 renal
SN12C renal = system: SN12C renal
RPMI-8226 leukemia = system: RPMI-8226 leukemia
RXF 393 renal = system: RXF 393 renal
SK-OV-3 ovarian = system: SK-OV-3 ovarian
OVCAR-4 ovarian = system: OVCAR-4 ovarian
UO-31 renal = system: UO-31 renal
P388 leukemia = system: P388 leukemia
MOLT-4 leukemia = system: MOLT-4 leukemia
SNB-75 CNS = system: SNB-75 CNS
NCI/ADR-RES ovarian = system: NCI/ADR-RES ovarian
NCI-H226 lung = system: NCI-H226 lung
UACC-257 melanoma = system: UACC-257 melanoma
DLD-1 colon = system: DLD-1 colon
SF-295 CNS = system: SF-295 CNS
KM12 colon = system: KM12 colon
HCT-15 colon = system: HCT-15 colon
MALME-3M melanoma = system: MALME-3M melanoma
IGROV1 ovarian = system: IGROV1 ovarian
DMS 114 small cell lung = system: DMS 114 small cell lung
SK-MEL-2 melanoma = system: SK-MEL-2 melanoma
XF 498 CNS = system: XF 498 CNS
SN12K1 renal = system: SN12K1 renal
NCI-H522 lung = system: NCI-H522 lung
A498 renal = system: A498 renal
SK-MEL-5 melanoma = system: SK-MEL-5 melanoma
SNB-78 CNS = system: SNB-78 CNS
U251 CNS = system: U251 CNS
DMS 273 small cell lung = system: DMS 273 small cell lung
LOX IMVI melanoma = system: LOX IMVI melanoma
SNB-19 CNS = system: SNB-19 CNS
HL-60(TB) leukemia = system: HL-60(TB) leukemia
OVCAR-8 ovarian = system: OVCAR-8 ovarian
SF-539 CNS = system: SF-539 CNS
K-562 leukemia = system: K-562 leukemia
OVCAR-3 ovarian = system: OVCAR-3 ovarian
P388/ADR leukemia = system: P388/ADR leukemia
HCC-2998 colon = system: HCC-2998 colon
SF-268 CNS = system: SF-268 CNS
A549 NSCLC = system: A549 NSCLC
COLO 205 colon = system: COLO 205 colon
KM20L2 colon = system: KM20L2 colon
NCI-H23 lung = system: NCI-H23 lung
MCF7 breast = system: MCF7 breast
NCI-H460 lung = system: NCI-H460 lung
HOP-62 NSCLC = system: HOP-62 NSCLC
SK-MEL-28 melanoma = system: SK-MEL-28 melanoma
HOP-18 NSCLC = system: HOP-18 NSCLC
OVCAR-5 ovarian = system: OVCAR-5 ovarian
SW-620 colon = system: SW-620 colon
UACC-62 melanoma = system: UACC-62 melanoma
HT29 colon = system: HT29 colon
HOP-92 NSCLC = system: HOP-92 NSCLC
HCT-116 colon = system: HCT-116 colon
M19-MEL melanoma = system: M19-MEL melanoma
TK-10 renal = system: TK-10 renal
786-0 renal = system: 786-0 renal
ACHN renal = system: ACHN renal
M14 melanoma = system: M14 melanoma
RXF-631 renal = system: RXF-631 renal
SR leukemia = system: SR leukemia
LXFL 529 NSCLC = system: LXFL 529 NSCLC
MDA-N = system: MDA-N
MDA-MB-231 breast = system: MDA-MB-231 breast
T-47D breast = system: T-47D breast
DU-145 prostate = system: DU-145 prostate
BT-549 breast = system: BT-549 breast
HS 578T breast = system: HS 578T breast
PC-3 prostate = system: PC-3 prostate

## OCC1OC(n2cnc3c2NC=NC[C@H]3O)C(O)C1O (stereo partly specified)
EKVX NSCLC
  TGI: > 450 µM
CCRF-CEM leukemia
  TGI: > 284 µM
CAKI-1 renal
  TGI: > 450 µM
SN12C renal
  TGI: > 450 µM
RPMI-8226 leukemia
  TGI: > 450 µM
RXF 393 renal
  TGI: > 450 µM
SK-OV-3 ovarian
  TGI: > 450 µM
OVCAR-4 ovarian
  TGI: > 450 µM
UO-31 renal
  TGI: > 450 µM
P388 leukemia
  TGI: > 450 µM
MOLT-4 leukemia
  TGI: > 450 µM
SNB-75 CNS
  TGI: > 450 µM
NCI/ADR-RES ovarian
  TGI: > 450 µM
NCI-H226 lung
  TGI: > 273 µM
UACC-257 melanoma
  TGI: > 450 µM
DLD-1 colon
  TGI: > 450 µM
SF-295 CNS
  TGI: > 450 µM
KM12 colon
  TGI: > 450 µM
HCT-15 colon
  TGI: > 450 µM
MALME-3M melanoma
  TGI: > 450 µM
IGROV1 ovarian
  TGI: > 450 µM
DMS 114 small cell lung
  TGI: > 450 µM
SK-MEL-2 melanoma
  TGI: > 450 µM
XF 498 CNS
  TGI: > 450 µM
SN12K1 renal
  TGI: > 450 µM
NCI-H522 lung
  TGI: > 450 µM
A498 renal
  TGI: > 450 µM
SK-MEL-5 melanoma
  TGI: > 71.3 µM
SNB-78 CNS
  TGI: > 450 µM
U251 CNS
  TGI: > 450 µM
DMS 273 small cell lung
  TGI: > 450 µM
LOX IMVI melanoma
  TGI: > 450 µM
SNB-19 CNS
  TGI: > 450 µM
HL-60(TB) leukemia
  TGI: 284 µM
OVCAR-8 ovarian
  TGI: > 450 µM
SF-539 CNS
  TGI: > 450 µM
K-562 leukemia
  TGI: > 284 µM
OVCAR-3 ovarian
  TGI: > 450 µM
P388/ADR leukemia
  TGI: > 450 µM
HCC-2998 colon
  TGI: > 450 µM
SF-268 CNS
  TGI: > 450 µM
A549 NSCLC
  TGI: > 450 µM
COLO 205 colon
  TGI: > 450 µM
KM20L2 colon
  TGI: > 450 µM
NCI-H23 lung
  TGI: > 450 µM
MCF7 breast
  TGI: > 450 µM
NCI-H460 lung
  TGI: > 450 µM
HOP-62 NSCLC
  TGI: > 419 µM
SK-MEL-28 melanoma
  TGI: > 450 µM
HOP-18 NSCLC
  TGI: > 450 µM
OVCAR-5 ovarian
  TGI: > 450 µM
SW-620 colon
  TGI: > 450 µM
UACC-62 melanoma
  TGI: > 450 µM
HT29 colon
  TGI: > 450 µM
HOP-92 NSCLC
  TGI: > 414 µM
HCT-116 colon
  TGI: > 450 µM
M19-MEL melanoma
  TGI: > 450 µM

## CCOC(=O)C(N=Nc1ccc(S(N)(=O)=O)cc1)C(C)=O (stereo unspecified)
TK-10 renal
  TGI: > 100 µM
EKVX NSCLC
  TGI: > 100 µM
CCRF-CEM leukemia
  TGI: > 100 µM
CAKI-1 renal
  TGI: > 100 µM
SN12C renal
  TGI: > 100 µM
786-0 renal
  TGI: > 100 µM
RPMI-8226 leukemia
  TGI: > 100 µM
RXF 393 renal
  TGI: > 100 µM
SK-OV-3 ovarian
  TGI: > 100 µM
OVCAR-4 ovarian
  TGI: > 100 µM
UO-31 renal
  TGI: > 100 µM
MOLT-4 leukemia
  TGI: > 100 µM
SNB-75 CNS
  TGI: > 100 µM
ACHN renal
  TGI: > 100 µM
NCI-H226 lung
  TGI: > 100 µM
UACC-257 melanoma
  TGI: > 100 µM
DLD-1 colon
  TGI: > 100 µM
M14 melanoma
  TGI: > 100 µM
SF-295 CNS
  TGI: > 100 µM
KM12 colon
  TGI: > 100 µM
HCT-15 colon
  TGI: > 100 µM
MALME-3M melanoma
  TGI: > 100 µM
RXF-631 renal
  TGI: > 100 µM
IGROV1 ovarian
  TGI: > 100 µM
DMS 114 small cell lung
  TGI: > 100 µM
SK-MEL-2 melanoma
  TGI: > 100 µM
XF 498 CNS
  TGI: > 100 µM
SR leukemia
  TGI: > 100 µM
NCI-H522 lung
  TGI: > 100 µM
A498 renal
  TGI: > 100 µM
SK-MEL-5 melanoma
  TGI: > 100 µM
SNB-78 CNS
  TGI: > 100 µM
U251 CNS
  TGI: > 100 µM
DMS 273 small cell lung
  TGI: > 100 µM
LOX IMVI melanoma
  TGI: > 100 µM
SNB-19 CNS
  TGI: > 100 µM
HL-60(TB) leukemia
  TGI: > 100 µM
OVCAR-8 ovarian
  TGI: > 100 µM
SF-539 CNS
  TGI: > 100 µM
K-562 leukemia
  TGI: > 100 µM
OVCAR-3 ovarian
  TGI: > 100 µM
HCC-2998 colon
  TGI: > 100 µM
SF-268 CNS
  TGI: > 100 µM
A549 NSCLC
  TGI: > 100 µM
COLO 205 colon
  TGI: > 100 µM
KM20L2 colon
  TGI: > 100 µM
NCI-H23 lung
  TGI: > 100 µM
NCI-H460 lung
  TGI: > 100 µM
HOP-62 NSCLC
  TGI: > 100 µM
SK-MEL-28 melanoma
  TGI: > 100 µM
HOP-18 NSCLC
  TGI: > 100 µM
OVCAR-5 ovarian
  TGI: > 100 µM
LXFL 529 NSCLC
  TGI: > 100 µM
SW-620 colon
  TGI: > 100 µM
UACC-62 melanoma
  TGI: > 100 µM
HT29 colon
  TGI: > 100 µM
HOP-92 NSCLC
  TGI: > 100 µM
HCT-116 colon
  TGI: > 100 µM
M19-MEL melanoma
  TGI: > 100 µM

## O=c1cc(-c2ccccc2)[nH]c2cc3c(cc12)OCO3
TK-10 renal
  TGI: > 94 µM
EKVX NSCLC
  TGI: > 100 µM
CCRF-CEM leukemia
  TGI: > 100 µM
SN12C renal
  TGI: > 100 µM
MDA-N
  TGI: > 100 µM
786-0 renal
  TGI: > 93 µM
RPMI-8226 leukemia
  TGI: > 80 µM
MDA-MB-231 breast
  TGI: > 100 µM
RXF 393 renal
  TGI: 17.2 µM
T-47D breast
  TGI: > 100 µM
SK-OV-3 ovarian
  TGI: 26 µM
OVCAR-4 ovarian
  TGI: > 100 µM
DU-145 prostate
  TGI: > 100 µM
UO-31 renal
  TGI: > 100 µM
MOLT-4 leukemia
  TGI: > 100 µM
SNB-75 CNS
  TGI: 43.3 µM
ACHN renal
  TGI: > 100 µM
BT-549 breast
  TGI: > 100 µM
NCI-H226 lung
  TGI: 27.5 µM
UACC-257 melanoma
  TGI: > 100 µM
DLD-1 colon
  TGI: > 100 µM
M14 melanoma
  TGI: > 80.2 µM
SF-295 CNS
  TGI: > 42.3 µM
KM12 colon
  TGI: > 93.1 µM
HCT-15 colon
  TGI: > 100 µM
HS 578T breast
  TGI: > 100 µM
MALME-3M melanoma
  TGI: > 82.9 µM
RXF-631 renal
  TGI: > 100 µM
IGROV1 ovarian
  TGI: > 100 µM
SK-MEL-2 melanoma
  TGI: > 93.2 µM
XF 498 CNS
  TGI: > 67.2 µM
SR leukemia
  TGI: 67.4 µM
NCI-H522 lung
  TGI: 13.4 µM
PC-3 prostate
  TGI: > 100 µM
A498 renal
  TGI: 63.1 µM
SK-MEL-5 melanoma
  TGI: 51.3 µM
SNB-78 CNS
  TGI: > 78.8 µM
U251 CNS
  TGI: > 82.3 µM
DMS 273 small cell lung
  TGI: 84.9 µM
LOX IMVI melanoma
  TGI: > 100 µM
SNB-19 CNS
  TGI: > 100 µM
HL-60(TB) leukemia
  TGI: 53 µM
OVCAR-8 ovarian
  TGI: > 100 µM
SF-539 CNS
  TGI: 18.8 µM
K-562 leukemia
  TGI: > 100 µM
OVCAR-3 ovarian
  TGI: 22.2 µM
HCC-2998 colon
  TGI: 55.6 µM
SF-268 CNS
  TGI: > 17.5 µM
A549 NSCLC
  TGI: > 100 µM
COLO 205 colon
  TGI: 65.7 µM
KM20L2 colon
  TGI: 12.2 µM
NCI-H23 lung
  TGI: > 28.6 µM
MCF7 breast
  TGI: > 100 µM
NCI-H460 lung
  TGI: > 57.8 µM
HOP-62 NSCLC
  TGI: > 90.3 µM
SK-MEL-28 melanoma
  TGI: > 100 µM
HOP-18 NSCLC
  TGI: > 100 µM
OVCAR-5 ovarian
  TGI: > 100 µM
LXFL 529 NSCLC
  TGI: > 100 µM
SW-620 colon
  TGI: > 100 µM
UACC-62 melanoma
  TGI: > 90.7 µM
HT29 colon
  TGI: > 46.4 µM
HOP-92 NSCLC
  TGI: > 56.5 µM
HCT-116 colon
  TGI: > 29.8 µM
M19-MEL melanoma
  TGI: > 100 µM
